Assay results taken from US8158559B2, “Herbicidal combination comprising dimethoxytriazinyl-substituted difluoromethanesulfonylanilides” (Bayer Cropscience AG, priority 2008, dated 2012).
Where two headings read alike, the source gives them in different places.

What was measured:
Test in all cases: Post-emergence action against weeds, greenhouse pot test, visual scoring
Type in all cases: in vivo
[1] = tested on: Cyperus esculentus (CYPES); settings: 504 h, read-out: % activity found
Procedure: (§1) Seeds or rhizome pieces of mono- and dicotyledonous harmful and useful plants were placed in peat pots (diameter 4 cm) filled with sandy loam and then covered with soil. The pots were kept in a greenhouse under optimum conditions. In addition, harmful plants encountered in paddy rice cultivation were cultivated in pots with a water level 2 cm above the soil surface.
(§2) About three weeks after the start of the cultivation, the test plants were treated at the 2- to 3-leaf stage. The herbicides, formulated as powder or liquid concentrates, were, either alone or in the combinations according to the invention, sprayed in various dosages on to the green parts of the plants using an application rate of 600 l of water/ha (converted). For further cultivation of the plants, the pots were then again kept under optimum conditions in a greenhouse.
(§3) The visual scoring of the herbicidal effects was carried out in intervals up to 21 days after the treatment. Scoring was carried out in percent in comparison to the untreated control plants. 0%=no herbicidal activity, 100%=complete herbicidal activity=complete kill.
(§4) The percentages from the treatments with the herbicides alone (=individual application) and with the combinations according to the invention (=mixtures) were employed to calculate interactions using the method of Colby. When the observed efficacies of the mixtures exceed the formal sum of the values of the tests with individual applications, they also exceed the expected value according to Colby, which is calculated using the formula below (cf. S. R. Colby; in Weeds 15 (1967) pp. 20 to 22): E=A+B−(A×B/100)
(§5) Here: • A, B=activity of components A and B in percent at a dosage of a and b g of ai/ha (=gramm of active substance per hectare), respectively. • E=expected value in % at a dosage of a+b g of ai/ha. Results
(§6) The combinations according to the invention of herbicides from group (A) with herbicides from group (B) were tested on a broad spectrum of important harmful plants (weed grasses, broad-leaved weeds/Cyperaceae) and useful plants: Triticum aestivum (TRZAS), Stellaria media (STEME), Lolium multiflorum (LOLMU), Veronica persica (VERPE), Alopecurus myosuroides (ALOMY), Matricaria inodora (MATIN), Brassica napus (BRSNW), Viola tricolor (VIOTR), Avena fatua (AVEFA), Amaranthus retroflexus (AMARE), Zea mays (ZEAMX), Pharbitis purpurea (PHBPU), Setaria viridis (SETVI), Fallopia (ex Polygonum) convolvulus (POLCO), Echinochloa crus-galli (ECHCG), Abuthilon theophrasti (ABUTH), Cyperus esculentus (CYPES), Oryza sativa (ORYSA).
(§7) Of particular interest are the results shown in the tables (Tab.) below, where the following key is used: • (1) EPPO code (former Bayer code) for the treated plant (see above) • (2) Time of scoring: DAT (days after treatment) • (3) Component A tested (identifying number) • (4) Component B tested (identifying number) • (5) Dosage component A [g of ai/ha] • (6) Dosage component B [g of ai/ha] • (7) % activity found • (8) E value (calculated according to Colby; see above) • (9) Comments: “SYNERGY”=synergistic interaction (E value<% activity found); “SAFENING”=safener action on useful plant (E value>% activity found)

[2] = tested on: Oryza sativa (ORYSA); settings: read-out: % activity found; for inhibition at 4 g/ha: dosage 4 g of ai/ha; for inhibition at 12 g/ha: dosage 12 g of ai/ha
Procedure: as §1, §2, §3, §4, §5, §6, §7

[3] = tested on: Triticum aestivum (TRZAS); settings: read-out: % activity found; for inhibition at 12 g/ha: dosage 12 g of ai/ha
Procedure: as §1, §2, §3, §4, §5, §6, §7

[4] = tested on: Avena fatua (AVEFA); settings: 504 h, read-out: % activity found
Procedure: as §1, §2, §3, §4, §5, §6, §7

[5] = tested on: Zea mays (ZEAMX); settings: read-out: % activity found; for inhibition at 4 g/ha: dosage 4 g of ai/ha
Procedure: as §1, §2, §3, §4, §5, §6, §7

[6] = tested on: Matricaria inodora (MATIN); settings: Tripleurospermum inodorum, 504 h, read-out: % activity found
Procedure: as §1, §2, §3, §4, §5, §6, §7

[7] = tested on: Lolium multiflorum (LOLMU); settings: read-out: % activity found; for inhibition at 4 g/ha: dosage 4 g of ai/ha
Procedure: as §1, §2, §3, §4, §5, §6, §7

[8] = tested on: Viola tricolor (VIOTR); settings: 240 h, read-out: % activity found
Procedure: as §1, §2, §3, §4, §5, §6, §7

[9] = 240 h, 10 DAT, dosage 12 g of ai/ha
[10] = 504 h, 21 DAT, dosage 12 g of ai/ha

In the case of `COc1nc(OC)nc(C(=O)c2cccc(F)c2N(C)S(=O)(=O)C(F)F)n1` [A-1], the inhibition at 4 g/ha ([1]; 21 DAT, dosage 4 g of ai/ha) is reported as 80%, the inhibition at 4 g/ha ([2]; 240 h, 10 DAT) is reported as 10% and the inhibition at 12 g/ha ([2]; 240 h, 10 DAT) is reported as 10%. The inhibition at 4 g/ha ([2]; 504 h, 21 DAT) was 0%, the inhibition at 12 g/ha ([2]; 504 h, 21 DAT) was 10% and the inhibition at 4 g/ha ([3]; 240 h, 10 DAT, dosage 4 g of ai/ha) was 0%. It also gave an inhibition at 12 g/ha ([3]; 240 h, 10 DAT) of 0%, an inhibition at 12 g/ha ([3]; 504 h, 21 DAT) of 0% and an inhibition at 4 g/ha ([4]; 21 DAT, dosage 4 g of ai/ha) of 10%. It also gave an inhibition at 12 g/ha ([4]; 21 DAT, dosage 12 g of ai/ha) of 30%, an inhibition at 4 g/ha ([5]; 240 h, 10 DAT) of 0% and an inhibition at 12 g/ha [5, 9] of 0%. For the same molecule, the inhibition at 4 g/ha ([5]; 504 h, 21 DAT) was 0%, the inhibition at 12 g/ha [5, 10] was 0% and the inhibition at 4 g/ha ([6]; 21 DAT, dosage 4 g of ai/ha) was 50%. It also gave an inhibition at 4 g/ha ([7]; 240 h, 10 DAT) of 0%, an inhibition at 12 g/ha [7, 9] of 10% and an inhibition at 4 g/ha ([7]; 504 h, 21 DAT) of 0%. The inhibition at 12 g/ha [7, 10] was 10%, the inhibition at 4 g/ha ([8]; 10 DAT, dosage 4 g of ai/ha) was 20% and the inhibition at 12 g/ha ([8]; 10 DAT, dosage 12 g of ai/ha) was 20%.

Work on `COc1cc(OC)nc(Oc2cccc(Oc3nc(OC)cc(OC)n3)c2C(=O)O)n1` [B2-1, sodium 2,6-bis[(4,6-dimethoxy-2-pyrimidinyl)oxy]benzoate, reference compound] yielded an inhibition at 36 g/ha ([2]; 504 h) of 70%, an inhibition at 12 g/ha ([5]; 240 h) of 40% and an inhibition at 36 g/ha ([5]; 240 h) of 40%. It also gave an inhibition at 12 g/ha ([5]; 504 h) of 0%, an inhibition at 36 g/ha ([5]; 504 h) of 0% and an inhibition at 12 g/ha ([7]; 240 h) of 40%. For the same molecule, the inhibition at 12 g/ha ([7]; 504 h) was 20% and the inhibition at 36 g/ha ([7]; 504 h) was 70%.

`CCOC(=O)COc1ncccc1Oc1cc(-n2c(=O)cc(C(F)(F)F)n(C)c2=O)c(F)cc1Cl` [B4-6, ethyl [[3-[2-chloro-5-[3,6-dihydro-3-methyl-2,6-dioxo-4-(trifluoromethyl)-1(2H)-pyrimidinyl]-4-fluorophenoxy]-2-pyridinyl]oxy]acetate, reference compound] gave an inhibition at 9 g/ha [1] of 20%, an inhibition at 3 g/ha ([2]; 240 h) of 40% and an inhibition at 9 g/ha ([2]; 240 h) of 40%. For the same molecule, the inhibition at 9 g/ha ([3]; 240 h) was 50%, the inhibition at 3 g/ha ([3]; 504 h) was 30% and the inhibition at 3 g/ha [4] was 0%. For the same molecule, the inhibition at 3 g/ha ([5]; 240 h) was 40%, the inhibition at 3 g/ha ([5]; 504 h) was 30% and the inhibition at 9 g/ha [6] was 80%. It also gave an inhibition at 3 g/ha [8] of 10% and an inhibition at 9 g/ha [8] of 85%.
